Test results reported in patent US20170314077A1, “SLFN11 AS BIOMARKER FOR AML” (BERGENBIO AS, priority 2014, published 2017).
Entries after “also recorded” stand apart in the source; their conditions may differ.

What was measured:
PHGDH = experiment: MOLM13 systemic xenograft model: biomarker flow cytometry in CD33-positive cells, PHGDH; assay type: in vivo, mice; conditions: 50 mg/kg for 4 days
Procedure: (§1) Material from an in vivo MOLM13 systemic model was also evaluated by flow cytometry. Expression of the previously evaluated biomarkers was examined in cells isolated from bone marrows and spleens of animals with systemic AML disease (MOLM13, inoculated for 7 days prior to treatment) treated with BGB324 at 50 mg/kg for 4 days.
(§2) Cells isolated from spleens and bone marrows were assessed for phosphorylation of Erk, PLCγ1 and Akt, and expression of PHGDH and SLFN11. The samples were also co-stained with CD33, and biomarker expression was only evaluated in CD33-positive cells.

pErk = experiment: MOLM13 systemic xenograft model: biomarker flow cytometry in CD33-positive cells, pErk; assay type: in vivo, mice; conditions: 50 mg/kg for 4 days
Procedure: as §1, §2

[1] = tested on: Slfn11 expression in MOLM-13 cells; experiment: Flow cytometry of Slfn11 expression in MOLM-13 cells after treatment; assay type: cell-based, human
Procedure: (§3) Live cells were centrifuged at 300 g for 5 minutes, washed once with PBS and centrifuged again. Cells were then fixed in 4% PFA in PBS for 10 minutes at 37° C., and resuspended in PBS. Unless processed immediately, samples were at this point stored in PBS at 4° C. (up to three weeks) or at −80° C. (for long-term storage). If intracellular epitopes were stained, cells were permebealized in 90% MeOH for 30 minutes on ice. Unless processed immediately, samples were also be stored in 90% MeOH at −20° C. for up to two months.
(§4) Cells (150-200 000 per sample) were washed 1× in PBS and incubated in blocking buffer; (PBS+0.5% BSA) for 15 minutes at room temperature. Thereafter, cells were incubated with primary mouse-anti-human SLFN11 Ab at the indicated dilutions in incubation buffer (IB, PBS+0.5% BSA) for 1 hour at room temperature. Cells were then washed 3× with IB and incubated with secondary AB (conjugated to a fluorescent flurophore) at 1:1000 dilution in IB for 30 minutes at room temperature. Finally, cells were washed 3× in IB and resuspended in PBS. For costaining experiments, cells were subsequently incubated with mouse-anti-human Axl Ab (1H12-A647 conjugated Ab) diluted 1:3000 in IB. Cells were analyzed immediately, or stored for up to 24 hours at 4° C. before analysis.
Analysis of cells was done on a BD LSR Fortessa or a BD C6 Accuri flow cytometer, and further processing was done using FlowJo v.7.6.

[2] = tested on: MOLM13 leukemic cells (CD33/CD45-positive); experiment: MOLM13 systemic xenograft model: CD33/CD45-positive leukemic cells by flow cytometry; assay type: in vivo, mice; conditions: 50 mg/kg for 4 days
Procedure: as §1
Cells harvested from spleens, blood and bone marrows of the animals were stained with anti CD33 and CD45 antibodies, to determine if systemic disease was established. CD33/CD45-positive cells were identified in spleens (around 10-15%), bone marrows (35-40%) and in the blood (2-6%) of the animals, confirming that the disease was established.

pPLCγ1 = experiment: MOLM13 systemic xenograft model: biomarker flow cytometry in CD33-positive cells, pPLCγ1; assay type: in vivo, mice; conditions: 50 mg/kg for 4 days
Procedure: as §1, §2

SLFN11 = experiment: MOLM13 systemic xenograft model: biomarker flow cytometry in CD33-positive cells, SLFN11; assay type: in vivo, mice; conditions: bone marrows, 50 mg/kg for 4 days
Procedure: as §1, §2

[3] = tested on: Slfn11 expression in OCI-AML3 cells; experiment: Flow cytometry of Slfn11 expression in OCI-AML3 cells after treatment; assay type: cell-based, human; conditions: OCI-AML3, treated at IC50-values for 24, 48 and 72 hours
Procedure: as §3
as §4, with “analysis. […]” for “analysis.”

SLFN11 transcript [4] = experiment: Microarray analysis of spleen RNA, systemic MOLM13 AML model (study 3); assay type: in vivo, NSG mice; conditions: study 3, systemic MOLM13, 25 or 50 mg/kg QD, 14 days
Procedure: (§5) To identify new potential biomarkers of BGB324 efficacy in AML, microarray analyses of tumor material from several AML studies were performed. In the first two studies, NOD/SCID mice were implanted with subcutaneous Mv4-11 xenografts. In study 1 the mice were treated with control (vehicle) or a single dose of BGB324 (50 or 100 mg/kg), and sacrificed after 24 hours. In study 2 the mice were treated BID for 14 days with control (vehicle), low (25 mg/kg) or high (50 mg/kg) dose of BGB324 for 14 days. In a third study, MOLM13 cells were injected intravenously into the tail vein of NSG mice. After three days of inoculation, the animals were treated with control (vehicle), high (50 mg/kg) or low (25 mg/kg) dose of BGB324 QD until the vehicle-treated animals were moribund (14 days after initiation of treatment). Development of leukemia was confirmed by flow cytometric analyses of human CD33/CD45-positive cells in the blood, spleens and bone marrow, and RNA isolated from spleens were sent for microarray analysis.

[5] = tested on: SLFN11 expression in OCI-AML5 cells; experiment: Flow cytometry of total SLFN11 in OCI-AML5 cells after long-term treatment; assay type: cell-based, human; conditions: OCI-AML5, 2.5 μM
Procedure: as §3
as §4, with “analysis. […]” for “analysis.”

[6] = tested on: SLFN11 expression in Kasumi cells; experiment: Flow cytometry of total SLFN11 in Kasumi cells after long-term treatment; assay type: cell-based, human; conditions: 2.5 μM
Procedure: as §3
as §4, with “analysis. […]” for “analysis.”

[7] = tested on: Slfn11 expression in OCI-M1 cells; experiment: Flow cytometry of Slfn11 expression in OCI-M1 cells after treatment; assay type: cell-based, human; conditions: OCI-M1, treated at IC50-values for 24, 48 and 72 hours
Procedure: as §3
as §4, with “analysis. […]” for “analysis.”

pAkt = experiment: MOLM13 systemic xenograft model: biomarker flow cytometry in CD33-positive cells, pAkt; assay type: in vivo, mice; conditions: 50 mg/kg for 4 days
Procedure: as §1, §2

Slfn11 protein = experiment: Western blot of MV4-11 subcutaneous tumor xenograft lysates; assay type: in vivo, mice; conditions: MV4-11 xenografts
Procedure: (§6) For western blot analysis, cells were lysed on ice using NP-40 lysis buffer with protease- and phosphatase inhibitors. Total protein concentration in lysates was measured using a BCA protein assay kit following the manufacturers instructions. 10% NuPAGE® Bis-Tris precast gels were loaded with 30-50 μg of protein in each well diluted in sample buffer and antioxidant. A 1:1 mix of MagicMark™ XP Western Protein Standard (Invitrogen) and SeeBlue® Plus 2 Pre-Stained Standard was used as protein standard. Gels were run at 50V for 20 min, then at 100V for 1 h30 min. Blotting was done on ice for 1 h 30 min at 100V onto PVDF (pre-activated with MeOH) or nitrocellulose membranes. Membranes were washed in TBS-0.1% Tween-20 (TBS-T), and blocked in TBS-T 5% BSA for at least 1 h at RT. Primary antibody was added at 1:1000 in TBS-T 5% BSA (rabbit-anti-actin Ab was added at 1:2000, rabbit anti-GAPDH Ab was added at 1:3000) in TBS-T 5% BSA, and membranes were incubated over night at 4° C. Membranes were then washed 3× in TBS-T, and incubated in HRP-conjugated secondary antibody at 1:5000 dilution in TBS-T 5% milk for 45 min at RT. Membranes were developed for 1 min using ECL-reagents and imaged with chemiluminescence using a Molecular Imager ChemiDoc™ XRS (BioRad).
In these studies, mice had been treated with BGB324 25 mg/kg BID and 50 mg/kg BID 2-5 cycle for 14 days, or with a single dose 100 mg/kg (tumors harvested 6 h after treatment).
Since Slfn11 was reduced in only one of two parallel tumor samples after a single treatment, it was decided to examine more lysates from Study 1 by western blot. In this study, mice with subcutaneous MV4-11 tumor xenografts were treated with a single low (50 mg/kg) or high (100 mg/kg) dose of BGB324, and tumors were harvested at different time points, from 4 hours up to 72 hours after treatment. […] Thus, it appears that Slfn11 is reduced in MV4-11 xenografts within 24-72 hours (depending on the drug concentration) after treatment with a single dose of BGB324. The effect of BGB324 on Slfn11 expression in these tumors appears to be long-lasting, as the protein level stays low 72 hours after treatment. However, there appear to be individual differences, and more than two parallel samples of each time point need to be examined in order to better understand the dynamics of Slfn11 reduction in MV4-11 xenografts after BGB324-treatment.

SLFN11 transcript [8] = experiment: Microarray analysis of subcutaneous Mv4-11 xenograft tumors (study 1 and study 2); assay type: in vivo, NOD/SCID mice; conditions: for downregulation of SLFN11 transcript (Rank Product Analysis): study 2, Mv4-11 xenografts, vs control
Procedure: as §5
One of the most interesting hits from a Rank Product Analysis of study 2 was a transcript called SLFN11.

[9] = tested on: SLFN11 expression in Mv4-11 cells; experiment: Flow cytometry of total SLFN11 in Mv4-11 cells after long-term treatment; assay type: cell-based, human
Procedure: as §3
as §4, with “analysis. […]” for “analysis.”

[10] = tested on: Slfn11 expression in MOLM-13 cells; experiment: Western blot of Slfn11 in MOLM-13 cells, increasing doses; assay type: cell-based, human; conditions: MOLM-13, 48 hours, increasing doses 0.1 uM to 1.2 uM
Procedure: as §6

For Nc1nc(Nc2ccc3c(c2)CC[C@@H](N2CCCC2)CC3)nn1-c1cc2c(nn1)-c1ccccc1CCC2 [BGB324], the “PHGDH expression in CD33-positive cells” value (PHGDH; bone marrows) was “significant reduction”, the “PHGDH expression in CD33-positive cells” value (PHGDH; spleens) was “significant reduction” and the “pErk in CD33-positive cells” value (pErk; bone marrows) was “significant reduction”. The “pErk in CD33-positive cells” value (pErk; spleens) was “significant reduction”, the “total protein expression of SLFN11 (flow cytometry, % of control)” value ([1]; MOLM13, 0.3 μM, 24, 48 and 72 hours) was “significant reduction” and the “SLFN11 expression (flow cytometry)” value ([1]; MOLM-13, 48 hours, increasing doses 0.1 uM to 1.2 uM) was “dose-dependent downregulation; also recorded: confirmed”. For the same compound, the “SLFN11 expression (flow cytometry)” value ([1]; MOLM-13, treated at IC50-values for 24, 48 and 72 hours) was “marked reduction”, the “percentage of leukemic cells (CD33/CD45-positive) vs. vehicle-treated” value (“percentage of leukemic cells” below) ([2]; blood) was “significantly higher percentage” and the “percentage of leukemic cells” value ([2]; bone marrows) was “no significant differences”. For the same compound, the “percentage of leukemic cells” value ([2]; spleens) was “no significant differences”, the “pPLCγ1 in CD33-positive cells” value (pPLCγ1; bone marrows) was “significant reduction” and the “pPLCγ1 in CD33-positive cells” value (pPLCγ1; spleens) was “significant reduction”. The “SLFN11 expression in CD33-positive cells” value (SLFN11) was “significant reduction”, the “SLFN11 expression (flow cytometry)” value [3] was “marked reduction” and the “SLFN11 transcript regulation in spleens” value (SLFN11 transcript [4]) was “not among the transcripts that were significantly downregulated”. For the same compound, the “total protein expression of SLFN11 (flow cytometry, % of control)” value ([5]; 24 and 48 hours) was “no significant differences”, the “total protein expression of SLFN11 (flow cytometry, % of control)” value ([5]; 72 hours) was “significant increase” and the “total protein expression of SLFN11 (flow cytometry, % of control)” value ([6]; 24 and 48 hours) was “no significant differences”. The “total protein expression of SLFN11 (flow cytometry, % of control)” value ([6]; 72 hours) was “significant increase”, the “SLFN11 expression (flow cytometry)” value [7] was “marked reduction” and the “pAkt change in CD33-positive cells” value (pAkt; bone marrows) was “not significant”. The “pAkt change in CD33-positive cells” value (pAkt; spleens) was “not significant”, the “Slfn11 protein compared to control levels (western blot)” value (Slfn11 protein; 25 mg/kg BID and 50 mg/kg BID, 14 days) was “marked reduction” and the “Slfn11 protein (western blot)” value (Slfn11 protein; single dose 100 mg/kg, tumors harvested 6 h after treatment) was “reduced in one of the two parallel samples”. The “duration of effect on Slfn11 protein level” value (Slfn11 protein; single dose, 72 hours after treatment) was “stays low”, the “time after single dose within which Slfn11 is reduced” value (Slfn11 protein; single dose, depending on the drug concentration) was 24 to 72 h and the “Slfn11 protein (western blot)” value (Slfn11 protein; single high dose 100 mg/kg, 24, 48 and 72 hours after treatment) was “reduction”. For the same compound, the “Slfn11 protein (western blot)” value (Slfn11 protein; single high dose 100 mg/kg, time points earlier than 24 hours (from 4 hours)) was “not at earlier time points”, the “Slfn11 protein (western blot)” value (Slfn11 protein; single low dose 50 mg/kg, 72 hours after treatment) was “slight reduction” and the “reduction of SLFN11 transcript (Rank Product Analysis)” value (SLFN11 transcript [8]; study 1, Mv4-11 xenografts, single dose (50 or 100 mg/kg), sacrificed after 24 hours) was 1.449 fold. The “SLFN11 transcript regulation after 14d treatment (in words)” value (SLFN11 transcript [8]; study 2, 25 and 50 mg/kg) was “highly significant dose-dependent downregulation”, the “SLFN11 transcript, SAM (significance of microarray) analysis” value (SLFN11 transcript [8]; study 2, 14 d treatment, q=0.0) was “reduction of SLFN11 as the most significant (#1) hit” and the “downregulation of SLFN11 transcript (Rank Product Analysis)” value (SLFN11 transcript [8]; 25 mg/kg BID for 14 days) was 1.98 fold. For the same compound, the “downregulation of SLFN11 transcript (Rank Product Analysis)” value (SLFN11 transcript [8]; 50 mg/kg BID for 14 days) was 3.98 fold, the “total protein expression of SLFN11 (flow cytometry, % of control)” value ([9]; Mv4-11, 0.1 uM, 72 hours) was “significantly reduced” and the “total protein expression of SLFN11 (flow cytometry, % of control)” value ([9]; Mv4-11, 0.3 μM, 24, 48 and 72 hours) was “significant reduction”. For the same compound, the “Slfn11 expression (western blot)” value [10] was “dose-dependent downregulation; also recorded: dose-dependent reduction” and the “Slfn11 expression (western blot)” value ([10]; listed as BGB324/R428) was “reduced in a dose-dependent manner”.
